Results as given in patent publication US5378730A, “Permeation enhancer comprising ethanol and monoglycerides” (priority 1992, dated 1995).

Format: in vitro ADME, human
Description: The optimum range of water in a permeation-enhancing mixture when used with the drug sodium piroxicam, where the ratio of Myverol 99K monoglyceride to ethanol is 40 to 55.4 in the mixture, was determined as follows. Various ethanol/Myverol 18-99K/water donor compositions, in the weight ratios listed in Table C, were tested with sodium piroxicam to measure their effect upon the drug flux across human cadaver epidermis at 35° C. The ratio of ethanol to monoglyceride was initially 55.4 to 40, to which varying amounts of water were added. All donor compositions were saturated with the drug. Test data were obtained using a 1.13 cm^2 wet-wet horizontal flux cell with 0.2 ml donor solution and 20 ml receptor solutions (pH 7.4 phosphate buffer, 0.05 M).

optimum range of water content in the permeation-enhancing mixture: 23-33 wt %
Compound: CN1C(C(=O)Nc2ccccn2)=C(O)c2ccccc2S1(=O)=O [sodium piroxicam]
